Source: the OligoGym collection
These antisense oligonucleotides have a phosphorothioate backbone; sugars and methylation of C are not fully specified.

Columns and labels:
Settings in all cases: ASO
FADD = target: FADD
RIPK1 = target: RIPK1
PTEN = target: PTEN
SMAD4 = target: SMAD4
Also: test concentration or dose not given here.

**Q.** How did the remaining target (mRNA or protein) (fraction of control) (FADD) turn out when GAACCAAAGTCCAGGCTG was run?
**A.** ≥ 1

**Q.** How did the remaining target (mRNA or protein) (fraction of control) (RIPK1) turn out when GAAGTTTGAGACCAGCCT was run?
**A.** ≥ 1

**Q.** For GAATATATCTTCACCTTT, which remaining target (mRNA or protein) (fraction of control) (PTEN) is on record?
**A.** 0.58

**Q.** Which remaining target (mRNA or protein) (fraction of control) (FADD) does the source give for GACAGGCTGGACGACACC here?
**A.** 0.62

**Q.** GACCCATCCCAAGTCCCT was tested. Which remaining target (mRNA or protein) (fraction of control) (RIPK1) did it give?
**A.** ≥ 1

**Q.** For GATGCTGTCGATCTTGGT, which remaining target (mRNA or protein) (fraction of control) (FADD) is on record?
**A.** 0.91

**Q.** How did the remaining target (mRNA or protein) (fraction of control) (RIPK1) turn out when GCCACATTCTGTCTGGGC was run?
**A.** 0.72

**Q.** How did the remaining target (mRNA or protein) (fraction of control) (FADD) turn out when GCCAGCCTTCTCCAATCT was run?
**A.** 0.62

**Q.** How did the remaining target (mRNA or protein) (fraction of control) (FADD) turn out when GCCCCTACTTAGCAGTCT was run?
**A.** 0.65

**Q.** For GCTCGCTGCTCGACAGGC, which remaining target (mRNA or protein) (fraction of control) (FADD) is on record?
**A.** 0.74

**Q.** GCTGGGCTACCTTCCTGG was tested. Which remaining target (mRNA or protein) (fraction of control) (FADD) did it give?
**A.** ≥ 1

**Q.** How did the remaining target (mRNA or protein) (fraction of control) (PTEN) turn out when GGAAGAACTCTACTTTGA was run?
**A.** 0.62

**Q.** How did the remaining target (mRNA or protein) (fraction of control) (FADD) turn out when GGACCACGGCCAACCAGG was run?
**A.** 0.58

**Q.** Which remaining target (mRNA or protein) (fraction of control) (PTEN) does the source give for GGATAAATATAGGTCAAG here?
**A.** ≥ 1

**Q.** How did the remaining target (mRNA or protein) (fraction of control) (RIPK1) turn out when GGATCCAGTGGTCTTGTT was run?
**A.** 0.84

**Q.** GGCATGGTGGGTGTATTT was tested. Which remaining target (mRNA or protein) (fraction of control) (RIPK1) did it give?
**A.** ≥ 1

**Q.** Which remaining target (mRNA or protein) (fraction of control) (FADD) does the source give for GGCCCCACTCCTGTTCTG here?
**A.** 0.52

**Q.** GGGAGGTGCCGCCGCCGC was tested. Which remaining target (mRNA or protein) (fraction of control) (PTEN) did it give?
**A.** 0.58

**Q.** With GGTTAGTTCTGGCTGACG as the sequence, how does the remaining target (mRNA or protein) (fraction of control) (RIPK1) read?
**A.** ≥ 1

**Q.** Which remaining target (mRNA or protein) (fraction of control) (FADD) does the source give for GGTTCCAACTTTCCAACT here?
**A.** 0.97

**Q.** For GGTTGGCTTTGTCTTTAT, which remaining target (mRNA or protein) (fraction of control) (PTEN) is on record?
**A.** 0.23

**Q.** How did the remaining target (mRNA or protein) (fraction of control) (FADD) turn out when GTCTGAGACTTTGAGCTG was run?
**A.** ≥ 1

**Q.** GTGCATCAGGTTGCCCTT was tested. Which remaining target (mRNA or protein) (fraction of control) (RIPK1) did it give?
**A.** ≥ 1

**Q.** How did the remaining target (mRNA or protein) (fraction of control) (RIPK1) turn out when GTGCCTTTTCCCTCTGTA was run?
**A.** 0.84

**Q.** Which remaining target (mRNA or protein) (fraction of control) (PTEN) does the source give for GTGTCAAAACCCTGTGGA here?
**A.** 0.28

**Q.** With GTTGCGTTCTCCTTCTCT as the sequence, how does the remaining target (mRNA or protein) (fraction of control) (FADD) read?
**A.** 0.76

**Q.** How did the remaining target (mRNA or protein) (fraction of control) (SMAD4) turn out when TAAAATCAGCAATACTGG was run?
**A.** 0.79

**Q.** How did the remaining target (mRNA or protein) (fraction of control) (PTEN) turn out when TAAATAGCTGGAGATGGT was run?
**A.** 0.45

**Q.** For TACAACTCGTTCGTAGTG, which remaining target (mRNA or protein) (fraction of control) (SMAD4) is on record?
**A.** ≥ 1

**Q.** With TACCAGGTCAGCCACCAG as the sequence, how does the remaining target (mRNA or protein) (fraction of control) (FADD) read?
**A.** 0.91

**Q.** Which remaining target (mRNA or protein) (fraction of control) (PTEN) does the source give for TAGCAAAACCTTTCGGAA here?
**A.** 0.49

**Q.** How did the remaining target (mRNA or protein) (fraction of control) (SMAD4) turn out when TAGGTAGAGTGACGCTGC was run?
**A.** ≥ 1

**Q.** With TATCAAAGATAGCTTGGT as the sequence, how does the remaining target (mRNA or protein) (fraction of control) (RIPK1) read?
**A.** ≥ 1

**Q.** Which remaining target (mRNA or protein) (fraction of control) (RIPK1) does the source give for TATGGCTCCTTATTTGCA here?
**A.** 0.78

**Q.** TATTTTCATGGTGTTTTA was tested. Which remaining target (mRNA or protein) (fraction of control) (PTEN) did it give?
**A.** 0.24

**Q.** How did the remaining target (mRNA or protein) (fraction of control) (PTEN) turn out when TCAATATTGTTCCTGTAT was run?
**A.** ≥ 1

**Q.** How did the remaining target (mRNA or protein) (fraction of control) (FADD) turn out when TCATAGTGAGGAAGAAAT was run?
**A.** ≥ 1

**Q.** With TCATCAGCACCTCACAGA as the sequence, how does the remaining target (mRNA or protein) (fraction of control) (FADD) read?
**A.** 0.74

**Q.** How did the remaining target (mRNA or protein) (fraction of control) (RIPK1) turn out when TCCCAGCACTTTGGAAGG was run?
**A.** ≥ 1

**Q.** With TCTCCTCAGCAGCCAGAG as the sequence, how does the remaining target (mRNA or protein) (fraction of control) (PTEN) read?
**A.** 0.66

**Q.** For TCTGGATCAGAGTCAGTG, which remaining target (mRNA or protein) (fraction of control) (PTEN) is on record?
**A.** 0.56

**Q.** With TCTGTCTAAGTAGTAACT as the sequence, how does the remaining target (mRNA or protein) (fraction of control) (SMAD4) read?
**A.** ≥ 1

**Q.** How did the remaining target (mRNA or protein) (fraction of control) (PTEN) turn out when TCTTCTGCAGGATGGAAA was run?
**A.** ≥ 1

**Q.** How did the remaining target (mRNA or protein) (fraction of control) (PTEN) turn out when TGAAGAATGTATTTACCC was run?
**A.** 0.56

**Q.** TGAAGCCTCCCATCCAAT was tested. Which remaining target (mRNA or protein) (fraction of control) (SMAD4) did it give?
**A.** 0.9

**Q.** For TGACAAGTTCTGAAGAGG, which remaining target (mRNA or protein) (fraction of control) (SMAD4) is on record?
**A.** ≥ 1

**Q.** Which remaining target (mRNA or protein) (fraction of control) (SMAD4) does the source give for TGACGCTGCTTTTAGTGT here?
**A.** ≥ 1

**Q.** With TGAGGTTGGCTGGTGAGC as the sequence, how does the remaining target (mRNA or protein) (fraction of control) (RIPK1) read?
**A.** 0.83

**Q.** For TGCTAACGATCTCTTTGA, which remaining target (mRNA or protein) (fraction of control) (PTEN) is on record?
**A.** 0.57

**Q.** Which remaining target (mRNA or protein) (fraction of control) (PTEN) does the source give for TGCTAGCCTCTGGATTTG here?
**A.** 0.26

**Q.** With TGCTCCACATCTTAAAGG as the sequence, how does the remaining target (mRNA or protein) (fraction of control) (RIPK1) read?
**A.** 0.75

**Q.** With TGGAAGTCATTATCAACA as the sequence, how does the remaining target (mRNA or protein) (fraction of control) (RIPK1) read?
**A.** ≥ 1

**Q.** With TGGAGTAACAGTGTGACT as the sequence, how does the remaining target (mRNA or protein) (fraction of control) (FADD) read?
**A.** 0.64

**Q.** TGGATGAAAGATTACAAT was tested. Which remaining target (mRNA or protein) (fraction of control) (SMAD4) did it give?
**A.** ≥ 1

**Q.** For TGGCTGCAGCTTCCGAGA, which remaining target (mRNA or protein) (fraction of control) (PTEN) is on record?
**A.** 0.27

**Q.** How did the remaining target (mRNA or protein) (fraction of control) (RIPK1) turn out when TGTCCAGTTCTGCACTCT was run?
**A.** 0.81

**Q.** For TGTCTCTGGTCCTTACTT, which remaining target (mRNA or protein) (fraction of control) (PTEN) is on record?
**A.** 0.66

**Q.** With TGTGAAACAACAGTGCCA as the sequence, how does the remaining target (mRNA or protein) (fraction of control) (PTEN) read?
**A.** 0.25

**Q.** TGTTCCTATAACTGGTAA was tested. Which remaining target (mRNA or protein) (fraction of control) (PTEN) did it give?
**A.** 0.42

**Q.** With TGTTTCAAGCCCATTCTT as the sequence, how does the remaining target (mRNA or protein) (fraction of control) (PTEN) read?
**A.** 0.35

**Q.** How did the remaining target (mRNA or protein) (fraction of control) (RIPK1) turn out when TTAAACTCTTCACGTCCT was run?
**A.** 0.85

**Q.** How did the remaining target (mRNA or protein) (fraction of control) (PTEN) turn out when TTAAATTTGGCGGTGTCA was run?
**A.** ≥ 1

**Q.** With TTCACAAAACTCATCCTG as the sequence, how does the remaining target (mRNA or protein) (fraction of control) (SMAD4) read?
**A.** ≥ 1

**Q.** With TTGGGAAAGTTGGCAGTG as the sequence, how does the remaining target (mRNA or protein) (fraction of control) (SMAD4) read?
**A.** ≥ 1

**Q.** Which remaining target (mRNA or protein) (fraction of control) (RIPK1) does the source give for TTGTGCTGTCTAGTAGTG here?
**A.** ≥ 1

**Q.** How did the remaining target (mRNA or protein) (fraction of control) (RIPK1) turn out when TTGTGTATCACGCCTTTT was run?
**A.** ≥ 1

**Q.** For TTTAAGGGATTCTCAATA, which remaining target (mRNA or protein) (fraction of control) (SMAD4) is on record?
**A.** ≥ 1

**Q.** Which remaining target (mRNA or protein) (fraction of control) (RIPK1) does the source give for TTTCCCCATTCTCCAGCT here?
**A.** 0.85

**Q.** With TTTGATACAAAACAGTAA as the sequence, how does the remaining target (mRNA or protein) (fraction of control) (FADD) read?
**A.** 0.42

**Q.** Which remaining target (mRNA or protein) (fraction of control) (SMAD4) does the source give for TTTGATGCTCTGTCTTGG here?
**A.** ≥ 1
